{
  "source": "patent US7022315B2",
  "about": "“Administration of a thiol-based chemoprotectant compound” (Oregon Health & Science University, priority 2000, dated 2006)",
  "key": {"cultured tumor cells": {"system": "cultured tumor cells", "experiment": "Paclitaxel cytotoxicity with BSO and NAC (WST)", "type": "cell-based"}, "rats": {"system": "rats", "experiment": "Blood counts after chemotherapy with or without NAC by left carotid aortic infusion (Example 1)", "type": "in vivo, rat", "text": "The rats were set up for drug administration by pushing a catheter forward past the junction of the external and internal carotid arteries (toward the aorta), and temporarily sealing off the internal carotid for good measure so nothing goes to the brain (left carotid aortic infusion method). In patients where entry is via the femoral artery and the catheter is threaded through the aorta to get to the brain in the first place, one would just pull the catheter back to the aorta to do the NAC infusion.\nRats were treated with carboplatin (200 mg/m^2), melphalan (10 mg/m^2) and etoposide phosphate (100 mg/m^2). In the NAC animals, NAC was infused with the left carotid aortic infusion method immediately after the chemotherapeutic agents, at concentrations ranging from 400–1200 mg/M^2. White blood cells (wbc) and platelets (plt) were counted at baseline before the experiment and at 6 and 9–11 days after treatment with the chemotherapeutic agents. […] Counts are in 1000s per μl blood. […] The lack of white blood cell effect was not repeated as there were significant effects shown below.\nThe data in table 2 show additional results. […] White blood cells (wbc) and platelets (plt) were counted at baseline before the experiment and at 6 and 9 days after treatment with the chemotherapeutic agents."}, "B.5 LX-1 cells": {"system": "B.5 LX-1 cells", "experiment": "In situ TUNEL staining for DNA fragmentation", "type": "cell-based", "settings": "melphalan 10 μg/ml, N-acetylcysteine 1000 μg/ml", "protocol": "FIGS. 7A and 7B show the effect of cytoenhancement and chemoprotection on apoptosis. […] Apoptosis was assessed in cultured LX-1 SCLC cells pretreated for 18 hours with or without 100 μM BSO. The experimental conditions were no addition (open bars), melphalan (10 μg/ml, striped bars) or melphalan (10 μg/ml) plus N-acetylcysteine (1000 μg/ml) (cross hatched bars) for 20 h prior to harvest. Caspase-2 activity is expressed as percentage activity in untreated control samples (mean±standard deviation, n=3). TUNEL staining is expressed as the percentage of cells showing positive staining.\nApoptosis was evaluated by measuring Caspase-2 enzymatic activity and by in situ TUNEL staining. […] The increase in caspase activity was variable between experiments and ranged from 50–100% at 7–8 h to 250–600% at 20–24 h after treatment with melphalan. […] In the experiment shown in FIG. 7B, TUNEL staining after melphalan treatment was positive in 29 of 3643 cells, compared to 7 of 4395 cells in the untreated control, and BSO treatment prior to melphalan increased the positive staining to 800 of 1699 cells. […] In both assays, activity was maximal with low doses of melphalan, or with a 1 hour pulse treatment with the doses used in the cytotoxicity assays."}, "[1]": {"experiment": "Radiolabeled NAC tissue delivery by route of administration", "type": "in vivo, rat", "settings": "for 14C-NAC found in brain: Example 10", "protocol": "Radiolabeled NAC in combination with unlabeled low dose NAC (140 mg/kg) or high dose NAC (1200 mg/kg) was administered to rats with the following routes of infusion: i.v. (open bars), intra-arterially into the right carotid artery (striped bars), intra-arterial via the left carotid artery with left internal artery occlusion (aortic infusion) (black bars), and intra-arterial (right carotid) with BBBD (cross hatched bars). Radiolabel in tissue homogenates is expressed as the mean and standard error of the % administered dose of 14C-NAC per gram of tissue (n=3 rats per group). Significant differences from i.v. delivery are indicated by *P<0.05 and **P<0.001.\nIn this experiment, radiolabeled NAC was administered to rats by three different routes. Liver and kidney tissue, in addition to the ipsilateral and contralateral hemispheres of the brain, were analyzed for radioactivity. Results are shown as the percent of the injected radioactive dose per gram of tissue. Route indicates intravenous (i.v.), intra-arterial into the right carotid artery (i.a.), or left carotid with internal artery occlusion and aortic infusion (left carotid aortic infusion). The left carotid aortic infusion intra-arterial method uses descending aorta placement of the catheter tip and NAC administration.\nThis example tested whether the inventive method for intra-arterial infusion (via the left carotid artery, with left internal artery occlusion) could reduce brain delivery of NAC and increase systemic delivery. Brain delivery was 0.04% of the injected dose with the inventive method (n=2).\nThe method of administration of NAC and its biodistribution was tested. Intra-arterial infusion retrograde via the left external carotid artery, with transient left internal artery occlusion, was evaluated as a mechanism to essentially perfuse via the descending aorta with limited delivery to the brain. […] The serum concentration of NAC 10 min after administration of 1200 mg/kg was 2.4 0.6 mg/ml (n=6) as determined by radiolabel remaining in the blood."}, "rat": {"system": "rat", "protocol": "FIG. 9 represents tests showing the effect of NAC route of administration on mortality+/−BSO. A Kaplan-Meier product limit analysis was used to evaluate the mortality due to chemoprotection with NAC. Rats were treated with or without BSO (10 mg/kg i.p. b.i.d.×3, black bars) prior to treatment with chemotherapy (Carboplatin 200 mg/m2, etoposide phosphate 100 mg/m2, melphalan 10 mg/m2). Chemoprotection consisted of NAC (1200 mg/m2) or NAC (1000 mg/m2) plus STS (8 g/m2) given either i.v. (n=17 BBSO, n=8+BSO) or by aortic infusion (n=19 BBSO, n=28+BSO).\nA dose escalation of NAC was performed in the rat.\nThe toxicity of NAC was determined when infused for bone marrow protection."}, "[2]": {"settings": "route left carotid aortic infusion, n=2"}},
  "data": [
    {"smiles": "CC(=O)N[C@@H](CS)C(=O)O", "note": "[NAC, N-acetylcysteine]", "values": [
      {"measurement": "effect on BSO-enhanced paclitaxel toxicity", "setting": "cultured tumor cells", "value": "completely reversed the enhanced toxicity"},
      {"measurement": "effect on the dose response for paclitaxel alone", "setting": "cultured tumor cells", "value": "did not change the dose response"},
      {"measurement": "platelet recovery from chemotherapy", "setting": "rats", "value": "recovered from chemotherapy faster"},
      {"measurement": "effect on melphalan-induced TUNEL staining", "setting": "B.5 LX-1 cells", "value": "reduced"},
      {"measurement": "serum concentration of NAC", "setting": "[1]; 10 min after administration of 1200 mg/kg, radiolabel remaining in the blood, n=6", "value": 2400, "unit": "µg/mL"},
      {"measurement": "14C-NAC found in brain", "setting": "[1]; aortic infusion", "value": "minimized brain delivery"},
      {"measurement": "14C-NAC found in brain", "setting": "[1]; i.v.", "value": "negligible amounts"},
      {"measurement": "14C-NAC found in brain", "setting": "[1]; intra-arterial, right internal carotid artery", "value": "high levels of radiolabel in the right cerebral hemisphere"},
      {"measurement": "liver and kidney delivery with aortic infusion", "setting": "[1]; high dose (1200 mg/kg) NAC, data not shown", "value": "no change in liver and kidney delivery"},
      {"measurement": "Brain delivery", "setting": "[1]; intra-arterial infusion via the left carotid artery with left internal artery occlusion, n=2", "value": "0.04 % of the injected dose"},
      {"measurement": "liver and kidney delivery with aortic infusion", "setting": "[1]; low dose of NAC (140 mg/kg)", "value": "decreased liver delivery and increased kidney delivery"},
      {"measurement": "left hem", "setting": "[1]; route i.a. into the right carotid artery, n=3", "value": "0.03% of the injected radioactive dose per gram of tissue"},
      {"measurement": "left hem", "setting": "[1]; route i.v., left brain hemisphere, n=2", "value": "0.02% of the injected radioactive dose per gram of tissue"},
      {"measurement": "kidney", "setting": "[1]; route i.v., n=2", "value": "0.72% of the injected radioactive dose per gram of tissue"},
      {"measurement": "liver", "setting": "[1]; route i.v., n=2", "value": "0.59% of the injected radioactive dose per gram of tissue"},
      {"measurement": "kidney", "setting": "[1]; [2]", "value": "1.42% of the injected radioactive dose per gram of tissue"},
      {"measurement": "left hem", "setting": "[1]; [2]", "value": "0.04% of the injected radioactive dose per gram of tissue"},
      {"measurement": "liver", "setting": "[1]; [2]", "value": "0.29% of the injected radioactive dose per gram of tissue"},
      {"measurement": "right hem", "setting": "[1]; [2]", "value": "0.04% of the injected radioactive dose per gram of tissue"},
      {"measurement": "mortality and toxicity", "setting": "rat; 1200 mg/kg by aortic infusion 30 minutes prior to chemotherapy, without BSO, 12 animals", "value": "no mortality nor any evidence of toxicity"},
      {"measurement": "bone marrow protection", "setting": "rat; 140–800 mg/kg i.v. immediately after chemotherapy, n=4", "value": "no detectable bone marrow protection"},
      {"measurement": "toxic doses", "setting": "rat; dose escalation, n=3", "value": "above 1200 mg/kg"},
      {"measurement": "mortality by route of administration", "setting": "rat; i.v. versus aortic infusion, Kaplan-Meier, P=0.0014", "value": "i.v. administration significantly more toxic than aortic infusion"},
      {"measurement": "toxicity", "setting": "rat; rat, in vivo, 1200 mg/kg", "value": "no toxicity"}
    ]}
  ]
}
